1 compound from ChEMBL document CHEMBL4480401, “Determination of Ligand Binding Epitope Structures Using Polarization Transfer from Hyperpolarized Ligands” (J Med Chem, 2019) can be followed below.

SMILES strings stand for the structures. The source made the active and inactive calls. The rule behind the calls is not given here.

The test addresses T1, Dihydrofolate reductase (Homo sapiens) (UniProt P00374).
T1 sequence (whole entry): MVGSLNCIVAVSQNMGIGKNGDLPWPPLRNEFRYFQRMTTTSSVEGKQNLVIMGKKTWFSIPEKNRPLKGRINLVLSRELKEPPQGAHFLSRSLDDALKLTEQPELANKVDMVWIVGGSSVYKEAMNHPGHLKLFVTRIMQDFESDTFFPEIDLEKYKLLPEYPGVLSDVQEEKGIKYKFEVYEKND
Put plainly: Binding affinity to [13C]-labeled DHFR DHFR (unknown origin) expressed in Escherichia coli BL21(DE3) using hyperpolarized compound sample at 1.6 mM by dissolution dynamic nuclear polarization and NMR spectroscopy.

Consider `Nc1nc(=O)c2nc(CNc3ccc(C(=O)N[C@@H](CCC(=O)O)C(=O)O)cc3)cnc2[nH]1`, for which the result was Active.
